Measurements reported in paper PMC3914206.

Tests used:
panel of 442 kinases [1] = molecular target: T1, panel of 442 kinases (Homo sapiens, UniProt O43283); type: binding; details: Compound Concentration 10 µM
T1 construct: purchased KINOMEscan
T1 sequence (O43283 1-966): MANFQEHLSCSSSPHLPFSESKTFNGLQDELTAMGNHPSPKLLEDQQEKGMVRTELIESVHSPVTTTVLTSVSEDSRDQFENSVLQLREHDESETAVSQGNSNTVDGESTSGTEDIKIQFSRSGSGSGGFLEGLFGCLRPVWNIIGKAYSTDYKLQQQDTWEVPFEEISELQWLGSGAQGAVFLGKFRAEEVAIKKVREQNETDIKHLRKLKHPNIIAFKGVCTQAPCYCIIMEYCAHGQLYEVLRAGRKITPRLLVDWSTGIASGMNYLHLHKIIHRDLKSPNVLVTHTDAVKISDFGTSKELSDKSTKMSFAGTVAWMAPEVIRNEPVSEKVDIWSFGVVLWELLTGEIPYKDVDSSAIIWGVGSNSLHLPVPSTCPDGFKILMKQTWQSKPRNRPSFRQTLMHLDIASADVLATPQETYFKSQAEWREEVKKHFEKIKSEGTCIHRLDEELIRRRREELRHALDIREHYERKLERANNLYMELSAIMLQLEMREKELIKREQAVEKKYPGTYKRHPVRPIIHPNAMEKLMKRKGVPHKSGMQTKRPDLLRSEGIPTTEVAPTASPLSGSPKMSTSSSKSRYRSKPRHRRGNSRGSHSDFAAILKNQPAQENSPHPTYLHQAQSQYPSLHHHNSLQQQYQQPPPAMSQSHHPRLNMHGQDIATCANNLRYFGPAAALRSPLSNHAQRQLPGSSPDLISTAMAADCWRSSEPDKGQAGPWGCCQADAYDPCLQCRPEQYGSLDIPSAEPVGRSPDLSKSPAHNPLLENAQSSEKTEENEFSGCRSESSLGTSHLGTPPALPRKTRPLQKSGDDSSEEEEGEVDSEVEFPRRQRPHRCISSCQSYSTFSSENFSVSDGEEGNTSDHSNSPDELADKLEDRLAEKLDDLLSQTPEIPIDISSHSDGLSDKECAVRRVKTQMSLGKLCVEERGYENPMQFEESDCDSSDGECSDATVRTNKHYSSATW
Text: (§1) We assessed the selectivity of members of this scaffold using the KINOMEscan methodology across a near comprehensive panel of 442 kinases [[18,27]].

panel of 442 kinases [2] = molecular target: T2, panel of 442 kinases (Homo sapiens, UniProt O14920); type: binding; details: Compound Concentration 10 µM
T2 construct: purchased KINOMEscan
T2 sequence (O14920 1-756): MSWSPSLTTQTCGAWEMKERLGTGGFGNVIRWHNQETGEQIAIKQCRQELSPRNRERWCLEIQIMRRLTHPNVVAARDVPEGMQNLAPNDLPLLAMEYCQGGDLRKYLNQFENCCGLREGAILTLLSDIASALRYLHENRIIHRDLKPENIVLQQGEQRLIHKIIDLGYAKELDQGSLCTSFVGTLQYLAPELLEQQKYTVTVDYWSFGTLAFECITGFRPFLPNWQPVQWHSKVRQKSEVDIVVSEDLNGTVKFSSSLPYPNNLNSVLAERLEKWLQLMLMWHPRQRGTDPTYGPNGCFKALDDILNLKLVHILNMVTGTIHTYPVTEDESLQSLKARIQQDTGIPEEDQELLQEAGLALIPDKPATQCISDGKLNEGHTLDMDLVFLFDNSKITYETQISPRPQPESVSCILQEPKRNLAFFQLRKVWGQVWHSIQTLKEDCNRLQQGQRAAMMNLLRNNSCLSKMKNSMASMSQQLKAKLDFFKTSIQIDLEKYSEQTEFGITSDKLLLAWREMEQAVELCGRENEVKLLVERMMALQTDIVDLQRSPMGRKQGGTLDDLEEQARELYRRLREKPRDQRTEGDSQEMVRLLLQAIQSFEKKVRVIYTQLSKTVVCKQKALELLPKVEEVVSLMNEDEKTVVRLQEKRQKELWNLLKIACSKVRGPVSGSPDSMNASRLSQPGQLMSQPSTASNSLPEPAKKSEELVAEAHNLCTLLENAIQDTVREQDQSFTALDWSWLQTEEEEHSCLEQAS
Text: as §1

Structure (SMILES) | KINOMEscan: LZK (panel of 442 kinases [1]) | KINOMEscan: IKK-beta (panel of 442 kinases [2])
COc1cc(C(=O)N2CCC(N3CCN(C)CC3)CC2)ccc1Nc1ncc2c(n1)N(C)c1ccccc1C(=O)N2C [15 (LRRK2-IN-1)] | 100 | 89
COc1cc(C(=O)N2CCC(N3CCN(C)CC3)CC2)ccc1Nc1ncc2c(n1)N(C1CCCC1)c1ccccc1C(=O)N2C [Compound 25, 11-cyclopentyl-2-((2-methoxy-4-(4-(4-methylpiperazin-1-yl)piperidine-1-carbonyl)phenyl)amino)-5-methyl-5H-benzo[e]pyrimido[5,4-b][1,4]diazepin-6(11H)-one] | 100 | 100
CCOc1cc(C(=O)N2CCC(N3CCN(C)CC3)CC2)ccc1Nc1ncc2c(n1)N(C1CCCC1)c1ccccc1C(=O)N2C [Compound 26] | 92 | 99
